Each structure is given as a SMILES string. pIC50: −log10 of the molar value.

The values that follow come from ChEMBL document CHEMBL1131700, “Synthesis and biological evaluation of novel cryptophycin analogs with modification in the beta-alanine region” (Bioorg Med Chem Lett, 1999).

The species entered for one assay is Homo sapiens. Nature of the assay: Antiproliferative activity was evaluated by the 72 hr MTT cell viability assay using human colon carcinoma cells (GC3). It counts as functional. The note with it: Homo sapiens, MTT, 72 h. (Tetrazolium assays rely on reduction of a dye to a coloured formazan, in cell work by metabolically active cells.)
For `COc1ccc(C[C@H]2NC(=O)/C=C/C[C@@H]([C@H](C)[C@H]3O[C@@H]3c3ccccc3)OC(=O)[C@H](CC(C)C)OC(=O)[C@H](Cc3ccccc3)NC2=O)cc1Cl`, the pIC50 was 6.00.

For the compound `COc1ccc(C[C@H]2NC(=O)/C=C/C[C@@H]([C@H](C)[C@H]3O[C@@H]3c3ccccc3)OC(=O)[C@H](CC(C)C)OC(=O)[C@H](CC(C)C)NC2=O)cc1Cl`, the pIC50 was 6.49. This pIC50 lies 0.49 log units higher than the previous one.

Compound `COc1ccc(C[C@H]2NC(=O)/C=C/C[C@@H]([C@H](C)[C@H]3O[C@@H]3c3ccccc3)OC(=O)[C@H](CC(C)C)OC(=O)[C@H](C)NC2=O)cc1Cl` gave a pIC50 of 7.89.

For `COc1ccc(C[C@H]2NC(=O)/C=C/C[C@@H]([C@H](C)[C@H]3O[C@@H]3c3ccccc3)OC(=O)[C@H](CC(C)C)OC(=O)C[C@@H](CC(C)C)NC2=O)cc1Cl`, the pIC50 is 8.52.

On to `COc1ccc(C[C@H]2NC(=O)/C=C/C[C@@H]([C@H](C)[C@H]3O[C@@H]3c3ccccc3)OC(=O)[C@H](CC(C)C)OC(=O)C[C@@H](c3ccccc3)NC2=O)cc1Cl`, for which the pIC50 was 9.03.

`COc1ccc(C[C@H]2NC(=O)/C=C/C[C@@H]([C@H](C)[C@H]3O[C@@H]3c3ccccc3)OC(=O)[C@H](CC(C)C)OC(=O)[C@H](C)CNC2=O)cc1Cl` [CRYPTOPHYCIN A]: the pIC50 was 9.62.

The compound `COc1ccc(C[C@H]2NC(=O)/C=C/C[C@@H]([C@H](C)[C@H]3O[C@@H]3c3ccccc3)OC(=O)[C@H](CC(C)C)OC(=O)[C@@H]3CCCCC3NC2=O)cc1Cl` (some centres not stated) showed a pIC50 of 8.89.

The compound `COc1ccc(C[C@H]2NC(=O)/C=C/C[C@@H]([C@H](C)[C@H]3O[C@@H]3c3ccccc3)OC(=O)[C@H](CC(C)C)NC(=O)C[C@@H](C)NC2=O)cc1Cl` gave a pIC50 of 10.22. This pIC50 lies 1.33 log units higher than the previous one.

For `COc1ccc(C[C@H]2NC(=O)/C=C/C[C@@H]([C@H](C)[C@H]3O[C@@H]3c3ccccc3)OC(=O)[C@H](CC(C)C)OC(=O)[C@H](C(C)C)NC2=O)cc1Cl`, the pIC50 is 6.51.

For the compound `COc1ccc(C[C@H]2NC(=O)/C=C/C[C@@H]([C@H](C)[C@H]3O[C@@H]3c3ccccc3)OC(=O)[C@H](CC(C)C)OC(=O)C[C@@H](Cc3ccccc3)NC2=O)cc1Cl`, the pIC50 was 8.28.

For `COc1ccc(C[C@H]2NC(=O)/C=C/C[C@@H]([C@H](C)[C@H]3O[C@@H]3c3ccccc3)OC(=O)[C@H](CC(C)C)OC(=O)c3ccccc3NC2=O)cc1Cl`, the pIC50 is 6.06.

In the case of `COc1ccc(C[C@H]2NC(=O)/C=C/C[C@@H]([C@H](C)[C@H]3O[C@@H]3c3ccccc3)OC(=O)[C@H](CC(C)C)OC(=O)[C@@H]3CCCN3C2=O)cc1Cl`, the pIC50 is < 5.82.

`COc1ccc(C[C@H]2NC(=O)/C=C/C[C@@H]([C@H](C)[C@H]3O[C@@H]3c3ccccc3)OC(=O)[C@H](CC(C)C)OC(=O)C(C)(C)CNC2=O)cc1Cl` [CRYPTOPHYCIN 52] had a pIC50 of 9.70.

The assay is the same for the next values; noted with them: mtt.
On to `COc1ccc(C[C@H]2NC(=O)/C=C/C[C@@H]([C@H](C)[C@H]3O[C@@H]3c3ccccc3)OC(=O)[C@H](CC(C)C)OC(=O)C[C@@H](C)NC2=O)cc1Cl` (stereo in doubt; 12a), for which the pIC50 is 9.40.

The compound `COc1ccc(C[C@H]2NC(=O)/C=C/C[C@@H]([C@H](C)[C@H]3O[C@@H]3c3ccccc3)OC(=O)[C@H](CC(C)C)OC(=O)C[C@@H](C)NC2=O)cc1Cl` (stereo in doubt; 12b) showed a pIC50 of 10.52.

The species entered for the next assay is Mus musculus. Nature of the assay: Compound was tested for its antitumor activity in murine pancreatic adenocarcinoma PO3 model at the maximum tolerated dose(MTD).
Conditions: not given
In kind it is functional.
For `COc1ccc(C[C@H]2NC(=O)/C=C/C[C@@H]([C@H](C)[C@H]3O[C@@H]3c3ccccc3)OC(=O)[C@H](CC(C)C)OC(=O)[C@H](C)CNC2=O)cc1Cl` [CRYPTOPHYCIN A], the T/C is < 5%.

Consider `COc1ccc(C[C@H]2NC(=O)/C=C/C[C@@H]([C@H](C)[C@H]3O[C@@H]3c3ccccc3)OC(=O)[C@H](CC(C)C)OC(=O)C(C)(C)CNC2=O)cc1Cl` [CRYPTOPHYCIN 52], for which the T/C was < 5%.

The term pIC50 denotes −log10 of the IC50, conventionally taken in molar units. Low readings indicate a high IC50, high ones a low IC50. In general, T/C refers to the ratio of treated to control.
